Tests used:
[1] = biological target: T1, 5-hydroxytryptamine receptor 1A (Homo sapiens, UniProt P08908); assay: Displacement of [3H]-[…] from human 5-HT1AR expressed in human HEK293 cells; type: cell-based
T1 sequence (P08908 whole entry): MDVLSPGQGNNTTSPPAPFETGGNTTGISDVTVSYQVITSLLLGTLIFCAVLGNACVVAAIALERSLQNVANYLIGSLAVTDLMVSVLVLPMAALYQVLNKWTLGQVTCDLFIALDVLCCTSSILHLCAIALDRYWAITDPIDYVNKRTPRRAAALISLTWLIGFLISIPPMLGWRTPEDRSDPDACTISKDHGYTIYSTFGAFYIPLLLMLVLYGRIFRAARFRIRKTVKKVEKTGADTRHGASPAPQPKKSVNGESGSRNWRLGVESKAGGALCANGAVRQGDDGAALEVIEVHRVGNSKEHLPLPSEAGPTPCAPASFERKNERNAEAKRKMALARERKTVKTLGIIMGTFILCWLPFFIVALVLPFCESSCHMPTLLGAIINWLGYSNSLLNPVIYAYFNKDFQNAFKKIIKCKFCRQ

D(2) dopamine receptor = D(2) dopamine receptor (Rattus norvegicus, UniProt P61169); assay: Displacement of [3H]-spiperone from DRD2 in rat striatum incubated for 45 mins by liquid scintillation counting; type: tissue-based
Sequence of D(2) dopamine receptor (P61169 whole entry): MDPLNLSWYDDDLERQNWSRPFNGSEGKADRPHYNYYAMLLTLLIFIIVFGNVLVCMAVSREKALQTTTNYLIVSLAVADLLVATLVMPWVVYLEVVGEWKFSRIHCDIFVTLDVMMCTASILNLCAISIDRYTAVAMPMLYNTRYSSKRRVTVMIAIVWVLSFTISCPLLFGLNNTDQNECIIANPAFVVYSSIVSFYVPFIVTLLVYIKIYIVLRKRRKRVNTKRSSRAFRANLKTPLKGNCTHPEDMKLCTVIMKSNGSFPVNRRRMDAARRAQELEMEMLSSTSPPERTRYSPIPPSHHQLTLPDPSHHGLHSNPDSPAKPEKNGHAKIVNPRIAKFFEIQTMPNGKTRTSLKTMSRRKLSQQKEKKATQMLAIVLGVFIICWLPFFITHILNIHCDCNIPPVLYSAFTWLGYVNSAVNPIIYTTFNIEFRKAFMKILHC

D(4) dopamine receptor = biological target: T2, D(4) dopamine receptor (Homo sapiens, UniProt P21917); assay: Binding affinity to human D4R
T2 sequence (P21917 whole entry): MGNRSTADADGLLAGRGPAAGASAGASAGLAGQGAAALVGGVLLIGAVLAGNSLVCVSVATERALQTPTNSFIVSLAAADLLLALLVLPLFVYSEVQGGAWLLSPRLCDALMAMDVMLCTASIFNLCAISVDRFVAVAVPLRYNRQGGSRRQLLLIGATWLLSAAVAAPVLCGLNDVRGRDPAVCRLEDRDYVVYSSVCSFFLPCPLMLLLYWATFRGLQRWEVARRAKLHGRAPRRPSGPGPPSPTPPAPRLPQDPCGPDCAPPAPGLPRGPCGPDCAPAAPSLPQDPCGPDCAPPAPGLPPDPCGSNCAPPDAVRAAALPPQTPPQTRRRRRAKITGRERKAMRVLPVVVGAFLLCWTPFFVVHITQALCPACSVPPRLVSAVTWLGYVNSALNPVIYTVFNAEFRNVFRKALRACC

D(1A) dopamine receptor = D(1A) dopamine receptor (Homo sapiens, UniProt P21728); assay: Binding affinity to human D1R
Sequence of D(1A) dopamine receptor (P21728 whole entry): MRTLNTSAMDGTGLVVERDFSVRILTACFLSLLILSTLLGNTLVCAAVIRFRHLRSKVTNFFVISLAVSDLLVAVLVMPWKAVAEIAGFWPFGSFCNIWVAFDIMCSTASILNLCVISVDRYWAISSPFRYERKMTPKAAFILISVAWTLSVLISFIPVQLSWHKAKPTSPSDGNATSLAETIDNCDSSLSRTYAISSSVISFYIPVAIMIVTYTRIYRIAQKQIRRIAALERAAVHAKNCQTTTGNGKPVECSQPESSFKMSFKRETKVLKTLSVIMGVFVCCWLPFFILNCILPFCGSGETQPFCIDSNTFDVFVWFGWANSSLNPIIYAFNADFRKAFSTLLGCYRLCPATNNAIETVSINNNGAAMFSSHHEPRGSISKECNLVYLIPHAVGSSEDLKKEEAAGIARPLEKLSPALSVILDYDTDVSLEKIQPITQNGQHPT

[2] = biological target: T3, 5-hydroxytryptamine receptor 1A (Rattus norvegicus, UniProt P19327); assay: Displacement of [3H]-[…] from Wistar rat frontal region 5-HT1AR incubated for 30 mins; type: tissue-based, Frontal lobe
T3 sequence (P19327 whole entry): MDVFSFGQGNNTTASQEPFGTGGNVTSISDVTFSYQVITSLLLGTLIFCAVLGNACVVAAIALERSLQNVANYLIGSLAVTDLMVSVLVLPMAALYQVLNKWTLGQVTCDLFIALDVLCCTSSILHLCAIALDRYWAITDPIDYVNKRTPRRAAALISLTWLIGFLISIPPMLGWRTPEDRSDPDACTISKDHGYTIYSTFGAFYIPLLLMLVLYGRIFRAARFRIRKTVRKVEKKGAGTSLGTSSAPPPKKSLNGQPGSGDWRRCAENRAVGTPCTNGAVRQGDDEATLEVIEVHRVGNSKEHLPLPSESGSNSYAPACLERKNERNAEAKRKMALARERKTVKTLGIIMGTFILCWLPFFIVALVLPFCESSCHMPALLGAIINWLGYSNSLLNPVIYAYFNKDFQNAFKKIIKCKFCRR

[3] = biological target: T4, Adrenergic receptor alpha-1 (Homo sapiens, UniProt P35348+P25100+P35368); assay: Binding affinity to human adrenergic receptor alpha1; type: protein assay
T4 sequence (P35348 whole entry): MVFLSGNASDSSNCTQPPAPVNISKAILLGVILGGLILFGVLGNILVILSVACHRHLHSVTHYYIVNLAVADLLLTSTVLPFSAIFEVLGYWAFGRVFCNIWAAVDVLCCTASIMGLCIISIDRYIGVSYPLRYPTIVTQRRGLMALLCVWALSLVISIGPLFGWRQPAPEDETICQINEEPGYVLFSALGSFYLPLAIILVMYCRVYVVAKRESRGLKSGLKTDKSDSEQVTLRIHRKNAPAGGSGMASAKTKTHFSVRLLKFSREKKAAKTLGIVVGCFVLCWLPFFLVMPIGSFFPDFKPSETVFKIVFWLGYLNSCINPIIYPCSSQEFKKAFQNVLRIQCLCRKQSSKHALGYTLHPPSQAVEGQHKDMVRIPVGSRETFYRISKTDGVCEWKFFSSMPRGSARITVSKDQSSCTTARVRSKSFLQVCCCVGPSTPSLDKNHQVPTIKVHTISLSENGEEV
T4 sequence (P25100 whole entry): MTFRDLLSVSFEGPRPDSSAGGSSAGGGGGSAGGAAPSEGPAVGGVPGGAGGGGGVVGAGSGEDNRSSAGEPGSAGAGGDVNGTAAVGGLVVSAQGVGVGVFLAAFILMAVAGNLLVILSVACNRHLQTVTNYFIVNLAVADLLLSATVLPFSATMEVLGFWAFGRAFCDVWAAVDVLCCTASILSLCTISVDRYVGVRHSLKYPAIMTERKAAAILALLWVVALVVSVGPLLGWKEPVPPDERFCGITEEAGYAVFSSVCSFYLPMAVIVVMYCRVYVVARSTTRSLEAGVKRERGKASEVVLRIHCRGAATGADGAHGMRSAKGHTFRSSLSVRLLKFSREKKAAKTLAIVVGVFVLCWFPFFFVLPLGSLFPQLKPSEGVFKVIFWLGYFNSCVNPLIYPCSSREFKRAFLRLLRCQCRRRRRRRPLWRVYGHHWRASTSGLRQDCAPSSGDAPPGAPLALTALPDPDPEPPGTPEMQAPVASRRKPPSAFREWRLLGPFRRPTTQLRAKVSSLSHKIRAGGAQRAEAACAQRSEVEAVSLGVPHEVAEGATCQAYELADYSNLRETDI
T4 sequence (P35368 whole entry): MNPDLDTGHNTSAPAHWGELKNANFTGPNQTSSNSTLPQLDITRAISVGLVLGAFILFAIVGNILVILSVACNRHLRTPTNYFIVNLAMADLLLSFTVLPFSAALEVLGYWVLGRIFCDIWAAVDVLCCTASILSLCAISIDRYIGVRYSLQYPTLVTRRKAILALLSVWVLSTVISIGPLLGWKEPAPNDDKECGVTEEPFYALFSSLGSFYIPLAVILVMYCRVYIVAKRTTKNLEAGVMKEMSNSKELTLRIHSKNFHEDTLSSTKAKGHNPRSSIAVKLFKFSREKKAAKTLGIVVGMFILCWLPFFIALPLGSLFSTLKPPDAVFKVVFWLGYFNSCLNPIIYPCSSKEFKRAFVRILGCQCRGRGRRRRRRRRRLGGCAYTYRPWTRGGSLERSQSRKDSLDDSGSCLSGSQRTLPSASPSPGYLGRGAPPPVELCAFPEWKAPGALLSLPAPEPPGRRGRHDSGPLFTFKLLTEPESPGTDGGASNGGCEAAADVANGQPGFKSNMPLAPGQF

[4] = biological target: 5-hydroxytryptamine receptor 2A (Homo sapiens, UniProt P28223); assay: Displacement of [3H]-ketanserin from human 5-HT2AR expressed in CHO cells; type: cell-based
Sequence of 5-hydroxytryptamine receptor 2A (P28223 whole entry): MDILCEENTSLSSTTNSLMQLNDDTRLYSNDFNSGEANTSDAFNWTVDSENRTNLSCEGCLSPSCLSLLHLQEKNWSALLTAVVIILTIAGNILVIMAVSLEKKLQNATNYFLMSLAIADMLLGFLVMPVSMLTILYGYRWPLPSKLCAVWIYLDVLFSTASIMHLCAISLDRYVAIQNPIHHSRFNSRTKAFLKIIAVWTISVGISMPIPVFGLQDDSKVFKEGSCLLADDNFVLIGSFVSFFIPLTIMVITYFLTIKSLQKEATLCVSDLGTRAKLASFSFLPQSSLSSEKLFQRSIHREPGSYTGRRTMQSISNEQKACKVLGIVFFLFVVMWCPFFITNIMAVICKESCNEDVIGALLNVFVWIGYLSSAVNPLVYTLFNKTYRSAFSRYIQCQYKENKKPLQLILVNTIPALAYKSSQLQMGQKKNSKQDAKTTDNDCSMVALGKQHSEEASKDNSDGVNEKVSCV

[5] = biological target: T5, 5-hydroxytryptamine receptor 2C (Homo sapiens, UniProt P28335); assay: Binding affinity to human 5-HT2C
T5 sequence (P28335 whole entry): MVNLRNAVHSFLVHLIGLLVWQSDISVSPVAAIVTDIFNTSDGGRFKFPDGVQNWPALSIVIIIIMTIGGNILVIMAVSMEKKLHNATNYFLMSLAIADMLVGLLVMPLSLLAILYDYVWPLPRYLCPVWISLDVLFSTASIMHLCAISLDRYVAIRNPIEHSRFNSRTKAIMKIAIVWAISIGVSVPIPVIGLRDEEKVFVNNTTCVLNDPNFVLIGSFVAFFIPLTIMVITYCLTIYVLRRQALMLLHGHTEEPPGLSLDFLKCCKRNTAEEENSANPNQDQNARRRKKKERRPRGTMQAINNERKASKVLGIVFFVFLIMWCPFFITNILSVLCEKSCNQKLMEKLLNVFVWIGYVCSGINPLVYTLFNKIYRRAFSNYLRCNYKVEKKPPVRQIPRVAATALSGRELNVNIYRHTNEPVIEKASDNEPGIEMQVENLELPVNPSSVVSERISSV

Ki [1]: 0.1 µM
Ki (D(2) dopamine receptor): 2.25 µM
Ki (D(4) dopamine receptor): > 5 µM
Ki (D(1A) dopamine receptor): > 5 µM
Ki [2]: 0.1 µM
Ki [3]: 1.5 µM
Ki [4]: 2.25 µM
Ki [5]: > 5 µM
SMILES: O=C1c2ccccc2S(=O)(=O)N1CCCCN1CCN(c2cccc(C(F)(F)F)c2)CC1
